Test results from patent publication US8232273B2, “Heterocyclic compounds and methods of use” (Genentech, Inc., priority 2008, dated 2012).

Columns and labels:
[1] = biological target: T1, Bcl-xL (GST-Bcl-xL) (Homo sapiens, UniProt Q07817); test: TR-FRET binding assay, competition with F-Bak for the Bcl-xL binding site; conditions: values listed in the order of Table 1, read-out: TR-FRET assay results (Ki), Bcl-xL
[2] = system: platelets; test: Cell viability assay for platelets (platelet rich plasma, CellTiter-Glo); type: cell-based; conditions: approximately 4 hours at 37 C
Procedure: Platelet rich plasma (PRP) was incubated with a compound of the invention for approximately 4 hours at 37° C. After incubation, platelets were equilibrated to room temperature for 20 minutes and then and equal volume of CELL TITER-GLO™ reagent (Promega Corporation) was added. Samples were mixed for two minutes and then allowed to equilibrate for an additional 10 minutes at room temperature. The luminescence generated from the samples was quantitated using a LJL Analyst plate reader. Data analysis was performed using GraphPad Prism 4.0.

[3] = biological target: T1, Bcl-xL (GST-Bcl-xL); test: AlphaScreen Bcl-xL binding assay, competition with biotinylated Bim peptide; design: made in house; conditions: values listed in the order of Table 1; read-out: Alphascreen results (IC50) against the Bcl-xL protein
Summary of the method: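 Acceptor beads with GST-Bcl-xL were combined with donor beads carrying biotinylated Bim peptide after each bead mix was preincubated 30 min at room temperature. Compounds in DMSO, 2-fold serially diluted, were incubated 30 min at room temperature before donor addition, with duplicate plates. Percent inhibition was taken against no-protein and DMSO controls, and IC50 was calculated.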

[4] = biological target: T2, Bcl-2 (GST-Bcl-2) (Homo sapiens, UniProt P10415); test: TR-FRET binding assay, competition with F-Bak for the Bcl-2 binding site; conditions: Bcl-2, for comparison (selectivity)
T2 construct: made in house
Procedure: For each assay plate, a probe/antibody and protein/antibody/probe mixture were included as a negative and a positive control, respectively. Fluorescence was measured on the Envision (Perkin Elmer) using a 340/35 nm excitation filter and 520/525 (F-Bak) and 495/510 nm (Tb-labeled anti-his antibody) emission filters. Dissociation constants (Ki) were determined using Wang's equation (see, Wang, Z. X. An exact mathematical expression for describing competitive binding of two different ligands to a protein molecule. FEBS Lett. 1995 360:111-114). The TR-FRET assay can be performed in the presence of varying concentrations of human serum (HS) or fetal bovine serum (FBS). For comparison, the measurement of the competition of compounds of the invention for other Bcl-2 family protein binding sites (e.g., Bcl-2, Mcl-1) using the TR-FRET binding assay was accomplish by substituting GST-Bcl-xL in the TR-FRET assay with other GST-labeled protein, e.g., GST-Bcl-2, GST-Mcl-1, prepared in-house.

T1 sequence (Q07817 whole entry, species assumed): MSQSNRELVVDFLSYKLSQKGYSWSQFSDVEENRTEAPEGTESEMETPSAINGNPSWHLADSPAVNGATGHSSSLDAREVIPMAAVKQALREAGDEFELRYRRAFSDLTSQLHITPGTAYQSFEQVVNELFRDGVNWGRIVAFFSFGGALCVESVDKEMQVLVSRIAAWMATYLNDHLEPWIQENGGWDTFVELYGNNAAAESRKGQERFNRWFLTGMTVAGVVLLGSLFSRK
T2 sequence (P10415 whole entry, species assumed): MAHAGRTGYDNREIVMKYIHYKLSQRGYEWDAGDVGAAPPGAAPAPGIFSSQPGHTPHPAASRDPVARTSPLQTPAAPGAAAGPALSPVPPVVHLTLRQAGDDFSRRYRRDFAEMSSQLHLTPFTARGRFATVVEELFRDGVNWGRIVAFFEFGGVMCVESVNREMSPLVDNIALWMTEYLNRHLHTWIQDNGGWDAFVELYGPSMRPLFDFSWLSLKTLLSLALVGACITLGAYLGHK

For CN1CCN(c2ncnc3c(-c4ccc(OCCCc5sc(N6CCc7cccc(C(=O)Nc8nc9ccccc9s8)c7C6)nc5C(=O)O)cc4)csc23)CC1 [Example 79, 2-[8-(Benzothiazol-2-ylcarbamoyl)-3,4-dihydro-1H-isoquinolin-2-yl]-5-(3-{4-[4-(4-methyl-piperazin-1-yl)-thieno[3,2-d]pyrimidin-7]-phenoxy}-propyl)-thiazole-4-carboxylic acid], the Ki [1] was 0.1 nM and the EC50 [2] was 3 nM.

Work on CN(C)CCOc1ccc(-c2ccc(OCCCc3sc(N4CCc5cccc(C(=O)Nc6nc7ccccc7s6)c5C4)nc3C(=O)O)cc2)nc1 [Example 90, 2-[8-(Benzothiazol-2-ylcarbamoyl)-3,4-dihydro-1H-isoquinolin-2-yl]-5-(3-{4-[5-(2-dimethylamino-ethoxy)-pyridin-2-yl]-phenoxy}-propyl)-thiazole-4-carboxylic acid] yielded a Ki [1] of 0.05 nM and an EC50 [2] of 3 nM.

In the case of CN(C)CCOc1ccc(OCCCc2sc(N3CCc4cccc(C(=O)Nc5nc6ccccc6s5)c4C3)nc2C(=O)O)cc1 [Example 75, 2-[8-(Benzothiazol-2-ylcarbamoyl)-3,4-dihydro-1H-isoquinolin-2-yl]-5-{3-[4-(2-dimethylamino-ethoxy)-phenoxy]-propyl}-thiazole-4-carboxylic acid], the Ki [1] is reported as 0.05 nM, the EC50 [2] is reported as 9 nM and the IC50 [3] is reported as 0.1 nM.

Compound CN(C)CCOc1ccc(-c2ccc(OCCCc3ccc(N4CCc5cccc(C(=O)Nc6nc7ccccc7s6)c5C4)nc3C(=O)O)cc2)nc1 [Example 95, 6-[8-(Benzothiazol-2-ylcarbamoyl)-3,4-dihydro-1H-isoquinolin-2-yl]-3-(3-{4-[5-(2-dimethylamino-ethoxy)-pyridin-2-yl]-phenoxy}-propyl)-pyridine-2-carboxylic acid] has a Ki [1] of 0.05 nM and an EC50 [2] of 3 nM.

For O=C(Nc1nc2ccccc2s1)c1cccc2c1CN(c1nc(C(=O)O)c(CCCOc3ccc(-c4csc5c(NCCCN6CCCC6)ncnc45)cc3)s1)CC2 [Example 78, 2-[8-(Benzothiazol-2-ylcarbamoyl)-3,4-dihydro-1H-isoquinolin-2-yl]-5-(3-{4-[4-(3-pyrrolidin-1-yl-propylamino)-thieno[3,2-d]pyrimidin-7-yl]-phenoxy}-propyl)-thiazole-4-carboxylic acid], the Ki [1] was 0.05 nM and the EC50 [2] was 3 nM.

In the case of CN(C)CCCNc1ncnc2c1cnn2-c1ccc(OCCCc2sc(N3CCc4cccc(C(=O)Nc5nc6ccccc6s5)c4C3)nc2C(=O)O)cc1 [Example 54, 2-(8-(benzo[d]thiazol-2-ylcarbamoyl)-3,4-dihydroisoquinolin-2(1H)-yl)-5-(3-(4-(4-(3-(dimethylamino)propylamino)-1H-pyrazolo[3,4-d]pyrimidin-1-yl)phenoxy)propyl)thiazole-4-carboxylic acid], the Ki [1] is reported as 0.05 nM and the EC50 [2] is reported as 132 nM.

O=C(Nc1nc2ccccc2s1)c1cccc2c1CN(c1nc(C(=O)O)c(CCNS(=O)(=O)c3cccc([N+](=O)[O-])c3)s1)CC2 [Example 70, 2-[8-(Benzothiazol-2-ylcarbamoyl)-3,4-dihydro-1H-isoquinolin-2-yl]-5-[2-(3-nitro-benzenesulfonylamino)-ethyl]thiazole-4-carboxylic acid] was tested, and the Ki [1] was 40 nM, the IC50 [3] was 260 nM and the Ki [4] was 500 nM.

With N#Cc1nccnc1-c1ccc(OCCCc2sc(N3CCc4cccc(C(=O)Nc5nc6ccccc6s5)c4C3)nc2C(=O)O)cc1 [Example 86, 2-[8-(Benzothiazol-2-ylcarbamoyl)-3,4-dihydro-1H-isoquinolin-2-yl]-5-{3-[4-(3-cyano-pyrazin-2-yl)-phenoxy]-propyl}-thiazole-4-carboxylic acid] the Ki [1] was 0.07 nM and the EC50 [2] was 10 nM.

For CC(C)n1cnc2c(-c3ccc(OCCCc4sc(N5CCc6cccc(C(=O)Nc7nc8ccccc8s7)c6C5)nc4C(=O)O)cc3)ncnc21 [Example 52, 2-(8-(benzo[d]thiazol-2-ylcarbamoyl)-3,4-dihydroisoquinolin-2(1H)-yl)-5-(3-(4-(9-isopropyl-9H-purin-6-yl)phenoxy)propyl)thiazole-4-carboxylic acid], the Ki [1] was 0.05 nM and the Ki [4] was 130 nM.

CN1CCN(c2cccc(OCCCc3sc(N4CCc5cccc(C(=O)Nc6nc7ccccc7s6)c5C4)nc3C(=O)O)c2)CC1 [Example 87, 2-[8-(Benzothiazol-2-ylcarbamoyl)-3,4-dihydro-1H-isoquinolin-2-yl]-5-{3-[3-(4-methyl-piperazin-1-yl)-phenoxy]-propyl}-thiazole-4-carboxylic acid] gave a Ki [1] of 0.05 nM and an EC50 [2] of 3 nM.

O=C(Nc1nc2ccccc2s1)c1cccc2c1CN(c1ccc(CCCOc3ccc(-c4ncccn4)cc3)c(C(=O)O)n1)CC2 [Example 96, 6-[8-(Benzothiazol-2-ylcarbamoyl)-3,4-dihydro-1H-isoquinolin-2-yl]-3-[3-(4-pyrimidin-2-yl-phenoxy)-propyl]-pyridine-2-carboxylic acid] showed a Ki [1] of 0.1 nM and an EC50 [2] of 354 nM.

Cc1cc(N2CCN(c3nc4ccccc4s3)CC2)ccc1OCCCc1sc(N2CCc3cccc(C(=O)Nc4nc5ccccc5s4)c3C2)nc1C(=O)O [Example 29, 5-(3-(4-(4-(benzo[d]thiazol-2-yl)piperazin-1-yl)-2-methylphenoxy)propyl)-2-(8-(benzo[d]thiazol-2-ylcarbamoyl)-3,4-dihydroisoquinolin-2(1H)-yl)thiazole-4-carboxylic acid] was tested, and the Ki [1] was 23 nM and the IC50 [3] was 117 nM.

O=C(Nc1nc2ccccc2s1)c1cccc2c1CN(c1nc(C(=O)O)c(CN3CCC(c4ccccc4)CC3)s1)CC2 [Example 63, 2-(8-(benzo[d]thiazol-2-ylcarbamoyl)-3,4-dihydroisoquinolin-2(1H)-yl)-5-((4-phenylpiperidin-1-yl)methyl)thiazole-4-carboxylic acid] was tested, and the Ki [1] was 248 nM and the IC50 [3] was 574 nM.

Work on O=C(Nc1nc2ccccc2s1)c1cccc2c1CN(c1nc(C(=O)O)c(CCOc3cccc(-n4ncc5cncnc54)c3)s1)CC2 [Example 50, 5-(2-(3-(1H-pyrazolo[3,4-d]pyrimidin-1-yl)phenoxy)ethyl)-2-(8-(benzo[d]thiazol-2-ylcarbamoyl)-3,4-dihydroisoquinolin-2(1H)-yl)thiazole-4-carboxylic acid] yielded a Ki [1] of 2 nM and an IC50 [3] of 10 nM.

O=C(Nc1nc2ccccc2s1)c1cccc2c1CN(c1nc(C(=O)O)c(CCOc3ccccc3)s1)CC2 [Example 76, 2-(8-(benzo[d]thiazol-2-ylcarbamoyl)-3,4-dihydroisoquinolin-2(1H)-yl)-5-(2-phenoxyethyl)thiazole-4-carboxylic acid] gave a Ki [4] of 350 nM.

CC1(C)[C@H]2CC[C@]1(C)C(Oc1ccccc1OCCCc1sc(N3CCc4cccc(C(=O)Nc5nc6ccccc6s5)c4C3)nc1C(=O)O)C2 (stereo partly drawn) [Example 22, 2-(8-(benzo[d]thiazol-2-ylcarbamoyl)-3,4-dihydroisoquinolin-2(1H)-yl)-5-(3-(2-((1S,4S)-1,7,7-trimethylbicyclo[2.2.1]heptan-2-yloxy)phenoxy)propyl)thiazole-4-carboxylic acid] was tested, and the Ki [1] was 19 nM and the IC50 [3] was 50 nM.
